Assay [1] deals with G4 Myc (fluorescence quench) (DNA, G4) TGGGGAGGGTGGGGAGGGTGGGGAAGG
Put plainly: fluorescence quench binding assay. The note with it: 150 mM KCl; for Kd: 50 mM Tris HCl pH 7.2, 0.5% CHAPS, 0.05% Triton X-100, apparent, 9 nM DNA.

Assay [2] deals with dsDNA (FRET) (DNA, hairpin, hexaethylene glycol (HEG, [(-CH2CH2O-)6]) linker between nucleotides 10 and 11) TATAGCTATATATAGCTATA
Put plainly: FRET melting. The note with it: 60 mM potassium cacodylate; pH 7.4; increasing compound concentration up to 3 µM, 200 nM DNA.

Assay [3] concerns dsDNA (fluorescence quench) (DNA, duplex) CAATCGGATCGAATTCGATCCGATTG
Put plainly: fluorescence quench binding assay. The settings on record: 150 mM KCl; 50 mM Tris HCl pH 7.2, 0.5% CHAPS, 0.05% Triton X-100; apparent; 9 nM DNA.

Assay [4] concerns G4 Kit1 (FRET) (DNA, G4) GGGAGGGCGCTGGGAGGAGGG
Put plainly: FRET melting. The settings on record: 60 mM potassium cacodylate; pH 7.4; increasing compound concentration up to 3 µM, 200 nM DNA.

Assay [5] has as its system G4 Telo (FRET) (DNA, G4) GGGTTAGGGTTAGGGTTAGGG
Put plainly: FRET melting. The settings on record: 60 mM potassium cacodylate; pH 7.4; 1 µM compound, 200 nM DNA.

The test system of assay [6] is G4 Telo (fluorescence quench) (DNA, G4) AGGGTTAGGGTTAGGGTTAGGGT
Put plainly: fluorescence quench binding assay. The note with it: 150 mM KCl; for Kd: 50 mM Tris HCl pH 7.2, 0.5% CHAPS, 0.05% Triton X-100, apparent, 9 nM DNA.

Assay [7] relates to G4 Myc (FRET) (DNA, G4) TGAGGGTGGGTAGGGTGGGTAA
Put plainly: FRET melting. The settings on record: 60 mM potassium cacodylate; pH 7.4; 1 µM compound, 200 nM DNA.

For assay [8], the system named is G4 Kit1 (fluorescence quench) (DNA, G4) AGGGAGGGCGCTGGGAGGAGGG
Put plainly: fluorescence quench binding assay. The note with it: 150 mM KCl; for Kd: 50 mM Tris HCl pH 7.2, 0.5% CHAPS, 0.05% Triton X-100, apparent, 9 nM DNA.

The mark [9] stands for this setting: 50 mM Tris HCl pH 7.2, CHAPS, Triton X-100, highest concentration tested 5 µM.

Structures are written as SMILES. A value given as a limit tells only on which side of the number the result lay.

By ΔTm is commonly meant the shift of the melting midpoint relative to a reference.

In the case of `C#CCCC1(CCC(=O)NCCOCCOCCNCCOc2cc(C(=O)Nc3cc(OCCN)c4ccccc4n3)nc(C(=O)Nc3cc(OCCN)c4ccccc4n3)c2)N=N1`, the Kd was 439 ± 36 nM in assay [1], > 5,000 nM in assay [3], 459 ± 25 nM in assay [6] and 669 ± 49 nM in assay [8]. The values for the binding result in assay [2] and in assay [4] were “no” and “yes”, respectively. For the same compound, the ΔTm in assay [5] was 27 °C; in assay [7], 13 °C.
Take `C#CCCC1(CCNCCOc2cc(C(=O)Nc3cc(OCCN)c4ccccc4n3)nc(C(=O)Nc3cc(OCCN)c4ccccc4n3)c2)N=N1`: the Kd in assay [1] is listed as 197 ± 10 nM; in assay [3], > 5,000 nM; in assay [6], 306 ± 6 nM; in assay [8], 323 ± 13 nM. Besides, the binding result in assay [2] is recorded as “no”; in assay [4], “yes”. For the same compound, the figures for the ΔTm in assay [5] and in assay [7] were 25 °C and 14 °C, respectively.
Regarding `C#CCCC1(CCC(=O)NC)N=N1`, the binding result in assay [1] (setting [9]), in assay [4], in assay [6] (setting [9]) and in assay [8] (setting [9]) was “no” throughout. Further, the ΔTm in assay [5] and in assay [7] was 0 °C each time.
In the case of `NCCOc1cc(C(=O)Nc2cc(OCCN)c3ccccc3n2)nc(C(=O)Nc2cc(OCCN)c3ccccc3n2)c1`, in assay [1], the Kd is recorded as 168 ± 8 nM.
